According to patent publication US12441768B2, “Compositions and methods for treating endometriosis” (EndoMet Biosciences, Inc., priority 2018, dated 2025):
Where a SMILES comes first, the peptide text is derived from it. [ ]: non-standard residue; d: D form. The star is where a group is joined. ξ: configuration not given here. NMeW = CN[C@@H](Cc1c[nH]c2ccccc12)C(=O)O; Palmitoyl = CCCCCCCCCCCCCCCC(=O)*; ξαMeV = CC(C)C(C)(N)C(=O)O; ξαMeS = CC(N)(CO)C(=O)O; GABA = NCCCC(=O)O

Columns and labels:
β-catenin = molecular target: T1, β-catenin (Homo sapiens, UniProt P35222); test: KD50 measurement using competitive fluorescence polarization (FP) with labelled TCF4; assay type: binding; conditions: fluorescence polarization, β-catenin; for Kd: read-out: β-Cat FP KD
T1 sequence (P35222 1-781): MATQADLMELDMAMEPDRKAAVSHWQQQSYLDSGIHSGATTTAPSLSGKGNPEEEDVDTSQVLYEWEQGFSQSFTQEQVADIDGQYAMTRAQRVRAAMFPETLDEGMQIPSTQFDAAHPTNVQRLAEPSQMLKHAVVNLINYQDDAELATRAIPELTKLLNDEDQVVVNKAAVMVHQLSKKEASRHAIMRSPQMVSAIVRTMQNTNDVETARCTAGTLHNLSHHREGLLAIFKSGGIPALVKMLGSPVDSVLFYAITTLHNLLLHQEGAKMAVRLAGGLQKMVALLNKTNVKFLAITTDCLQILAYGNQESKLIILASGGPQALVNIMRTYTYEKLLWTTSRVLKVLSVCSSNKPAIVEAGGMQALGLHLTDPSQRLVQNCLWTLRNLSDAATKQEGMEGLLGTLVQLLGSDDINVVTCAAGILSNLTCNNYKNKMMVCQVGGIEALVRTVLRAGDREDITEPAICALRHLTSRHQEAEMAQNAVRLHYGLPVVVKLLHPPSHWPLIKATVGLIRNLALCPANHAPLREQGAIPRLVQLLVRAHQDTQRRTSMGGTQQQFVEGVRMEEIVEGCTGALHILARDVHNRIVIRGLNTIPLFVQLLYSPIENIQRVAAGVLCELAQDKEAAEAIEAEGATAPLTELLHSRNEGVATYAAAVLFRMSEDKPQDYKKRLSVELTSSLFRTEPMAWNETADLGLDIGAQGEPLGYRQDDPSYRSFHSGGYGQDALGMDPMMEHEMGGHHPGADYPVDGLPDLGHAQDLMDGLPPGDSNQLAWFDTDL
Method in brief: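 Polarization readout (470 nm excitation, 520 nm emission) tracks loss of labelled TCF4 binding to β-catenin as test compound competes. Conditions were 5 nM tracer, 100 nM β-catenin, room temperature, compound serially diluted from 10 nM to 30 uM; run in triplicate experiments.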

[1] = molecular target: Wnt-responsive promoter (TCF/LEF); test: Wnt-dependent luciferase reporter assay; assay type: cell-based, murine
Method: The luciferase reporter assay is commonly used as a tool to study gene expression at the transcriptional level. Peptides from libraries described herein were characterized for ability to suppress transcription in cells with luciferase expression controlled by a Wnt-responsive promoter. Peptides were added to cells transfected with luciferase gene downstream of a Wnt-responsive promoter. Cells were stimulated with Wnt3a protein and incubated with peptides from libraries described herein. Luminescence was recorded to determine the peptides with the highest β-catenin-inhibiting activity. EC50 values were calculated based on the inhibition of luminescence and expressed as concentration (uM) in Table 5.
Peptides were assessed for their ability to inhibit Wnt signaling. Murine 3T3 fibroblasts that express luciferase under a Wnt-responsive promoter (TCF/LEF) (Enzo Life Sciences, Farmingdale, NY) were stimulated with Wnt3a in the presence of increasing concentrations of peptide inhibitor (Hit 1: SEQ ID NO:217, Hit 2: SEQ ID NO:224, Hit 3: SEQ ID NO:228, Hit 4: SEQ ID NO:227, Hit 5: SEQ ID NO:220, Hit 6: SEQ ID NO:168. Hit 7: SEQ ID NO:226) or with vehicle control (FIG. 2A).

| β-Cat FP Hill slope (β-catenin) | Kd (β-catenin) [µM] | EC50 [1] [µM] | Molecule |
| --- | --- | --- | --- |
| 0.7 | < 0.4 | 22.5 to 30 | CC[C@H](C)[C@@H]1NC(=O)[C@@H](NC(=O)[C@H](CCC(N)=O)NC(C)=O)CCCCNC(=O)CC[C@@H](C(=O)N[C@@H](Cc2c[nH]cn2)C(=O)N[C@H](C(=O)N[C@@H](CCC(N)=O)C(=O)N[C@@H](CCCNC(=N)N)C(=O)N[C@H](C(=O)N[C@@H](Cc2c[nH]c3ccccc23)C(=O)NCC(N)=O)C(C)C)C2CCCCC2)NC(=O)[C@H](CC(=O)O)NC(=O)[C@H](CC(C)C)NC1=O [compound 440] (HELM PEPTIDE1{[ac].Q.K.I.L.D.E.H.[O=C([C@@H](N[*:1])C1CCCCC1)[*:2]].Q.R.V.W.G.[am]}$PEPTIDE1,PEPTIDE1,3:R3-7:R3$$$V2.0) |
| 1.75 | < 0.4 | 15 to 22.5 | CC[C@H](C)[C@@H]1NC(=O)[C@@H](NC(=O)[C@H](CCC(N)=O)NC(=O)[C@H](C)N(C)C(=O)[C@H](Cc2c[nH]c3ccccc23)NC(C)=O)CCCCNC(=O)C[C@@H](C(=O)N[C@@H](Cc2c[nH]cn2)C(=O)N[C@H](C(=O)N[C@@H](CCC(N)=O)C(=O)N[C@@H](CCCNC(=N)N)C(=O)N[C@H](C(=O)N[C@@H](Cc2c[nH]c3ccccc23)C(=O)NCC(N)=O)C(C)C)C2CCCCC2)NC(=O)[C@H](CC(=O)O)NC(=O)[C@H](CC(C)C)NC1=O [compound 430] (HELM PEPTIDE1{[ac].W.[meA].Q.K.I.L.D.D.H.[O=C([C@@H](N[*:1])C1CCCCC1)[*:2]].Q.R.V.W.G.[am]}$PEPTIDE1,PEPTIDE1,5:R3-9:R3$$$V2.0) |
|  |  | 7.5 to 15 | CCCCCCCCCCCCCCCC(=O)NCC(=O)N[C@@H](Cc1c[nH]c2ccccc12)C(=O)N(C)[C@@H](Cc1c[nH]c2ccccc12)C(=O)N[C@@H](CCC(=O)O)C(=O)NC(C)(CO)C(=O)N[C@H](C(=O)N[C@@H](CC(C)C)C(=O)N[C@@H](CC(=O)O)C(=O)N[C@@H](CCC(=O)O)C(=O)N[C@@H](Cc1c[nH]cn1)C(=O)NC(C)(C(=O)N[C@@H](CCC(N)=O)C(=O)N[C@@H](CCCNC(=N)N)C(=O)N[C@H](C(=O)N[C@@H](Cc1c[nH]c2ccccc12)C(=O)O)C(C)C)C(C)C)[C@@H](C)CC (stereo partly shown) [compound 398] (Palmitoyl-GW[NMeW]E[ξαMeS]ILDEH[ξαMeV]QRVW-OH) |
|  |  | 7.5 to 15 | CCCCCCCCCCCCCCCC(=O)NCCCC(=O)N[C@@H](Cc1c[nH]c2ccccc12)C(=O)N(C)[C@@H](Cc1c[nH]c2ccccc12)C(=O)N[C@@H](CCC(=O)O)C(=O)NC(C)(CO)C(=O)N[C@H](C(=O)N[C@@H](CC(C)C)C(=O)N[C@@H](CC(=O)O)C(=O)N[C@@H](CCC(=O)O)C(=O)N[C@@H](Cc1c[nH]cn1)C(=O)NC(C)(C(=O)N[C@@H](CCC(N)=O)C(=O)N[C@@H](CCCNC(=N)N)C(=O)N[C@H](C(=O)N[C@@H](Cc1c[nH]c2ccccc12)C(=O)O)C(C)C)C(C)C)[C@@H](C)CC (stereo partly shown) [compound 400] ({Palmitoyl-GABA}-W[NMeW]E[ξαMeS]ILDEH[ξαMeV]QRVW-OH) |
|  | < 0.4 |  | CCCCCCCCCCCC(=O)N[C@@H](Cc1c[nH]c2ccccc12)C(=O)N1CCC[C@H]1C(=O)N[C@@H](CCC(N)=O)C(=O)N[C@@H](CO)C(=O)N[C@H](C(=O)N[C@@H](CC(C)C)C(=O)N[C@@H](CC(=O)O)C(=O)N[C@H]1CCC(=O)NCCCC[C@@H](C(=O)N[C@H](C(=O)N[C@@H](Cc2c[nH]c3ccccc23)C(=O)NCC(N)=O)C(C)C)NC(=O)[C@H](CCC(N)=O)NC(=O)[C@H](C2CCCCC2)NC(=O)[C@H](Cc2c[nH]cn2)NC1=O)[C@@H](C)CC [compound 473] (HELM PEPTIDE1{[CCCCCCCCCCCC(=O)[*:2]].W.P.Q.S.I.L.D.E.H.[O=C([C@@H](N[*:1])C1CCCCC1)[*:2]].Q.K.V.W.G.[am]}$PEPTIDE1,PEPTIDE1,9:R3-13:R3$$$V2.0) |
| 0.7 | < 0.4 |  | CC[C@H](C)[C@H](NC(=O)[C@H](CO)NC(=O)[C@H](CCC(N)=O)NC(=O)[C@H](C)N(C)C(=O)[C@H](Cc1c[nH]c2ccccc12)NC(C)=O)C(=O)N[C@@H](CC(C)C)C(=O)N[C@@H](CC(=O)O)C(=O)N[C@H]1CCCCNC(=O)C[C@@H](C(=O)N[C@H](C(=O)N[C@@H](Cc2c[nH]c3ccccc23)C(N)=O)C(C)C)NC(=O)[C@H](CCC(N)=O)NC(=O)[C@H](C2CCCCC2)NC(=O)[C@H](Cc2c[nH]cn2)NC1=O [compound 460] (HELM PEPTIDE1{[ac].W.[meA].Q.S.I.L.D.K.H.[O=C([C@@H](N[*:1])C1CCCCC1)[*:2]].Q.D.V.W.[am]}$PEPTIDE1,PEPTIDE1,9:R3-13:R3$$$V2.0) |

More lines, now with the values behind:

| Molecule | β-Cat FP Hill slope (β-catenin) | Kd (β-catenin) [µM] | EC50 [1] [µM] |
| --- | --- | --- | --- |
| CC[C@H](C)[C@H](NC(=O)[C@H](CO)NC(=O)[C@H](CCC(=O)O)NC(=O)[C@H](Cc1c[nH]c2ccccc12)NC(=O)[C@@H](N)CCSC)C(=O)N[C@@H](CC(C)C)C(=O)N[C@@H](CC(=O)O)C(=O)N[C@@H](CCC(=O)O)C(=O)N[C@@H](Cc1c[nH]cn1)C(=O)NC(C)(C(=O)N[C@@H](CCC(N)=O)C(=O)N[C@@H](CCCNC(=N)N)C(=O)N[C@H](C(=O)N[C@@H](Cc1c[nH]c2ccccc12)C(=O)NCC(N)=O)C(C)C)C(C)C (stereo partly shown) [compound 34] (HELM PEPTIDE1{M.W.E.S.I.L.D.E.H.[CC(C)C(C)(N[*:1])C(=O)[*:2]].Q.R.V.W.G.[am]}$$$$V2.0) | 0.92 | < 0.4 | > 30 |
| CC[C@H](C)[C@H](NC(=O)[C@H](CC(C)C)NC(=O)[C@@H](NC(=O)[C@@H](N)Cc1c[nH]c2ccccc12)[C@@H](C)CC)C(=O)N[C@@H](C)C(=O)N[C@@H](Cc1ccccc1)C(=O)N[C@@H](Cc1c[nH]c2ccccc12)C(=O)NCC(=O)O [compound 265] (H-WILIAFWG-OH) | 0.7 | 1 to 10 |  |
| CC[C@H](C)[C@@H]1NC(=O)[C@H](CC(C)C)NC(=O)[C@H](Cc2ccccc2)NC(=O)[C@H](Cc2c[nH]c3ccccc23)NC(=O)CCCCCCCCCNC(=O)[C@H](Cc2c[nH]c3ccccc23)NC(=O)[C@H](C)NC(=O)[C@H](CS)NC1=O [compound 250] (HELM PEPTIDE1{A.W.[O=C(CCCCCCCCCN[*:1])[*:2]].W.F.L.I.C}$PEPTIDE1,PEPTIDE1,1:R1-8:R2$$$V2.0) |  | 1 to 10 |  |
| CC[C@@H]1NC(=O)[C@H]([C@@H](C)CC)NC(=O)[C@H](CC(C)C)NC(=O)[C@H](Cc2ccccc2)NC(=O)[C@H](Cc2c[nH]c3ccccc23)NC(=O)[C@@H](N)CCCCNC(=O)C[C@@H](C(=O)O)NC(=O)[C@H](Cc2c[nH]c3ccccc23)NC(=O)[C@H](C)NC1=O [compound 244] (HELM PEPTIDE1{K.W.F.L.I.[Abu].A.W.D}$PEPTIDE1,PEPTIDE1,1:R3-9:R3$$$V2.0) | 1.9 | 0.4 to 1 |  |
| CCCCCCCCCCCCCCCCCC(=O)N[C@@H](Cc1c[nH]c2ccccc12)C(=O)N(C)[C@@H](Cc1c[nH]c2ccccc12)C(=O)N[C@@H](CCC(=O)O)C(=O)NC(C)(CO)C(=O)N[C@H](C(=O)N[C@@H](CC(C)C)C(=O)N[C@@H](CC(=O)O)C(=O)N[C@@H](CCC(=O)O)C(=O)N[C@@H](Cc1c[nH]cn1)C(=O)NC(C)(C(=O)N[C@@H](CCC(N)=O)C(=O)N[C@@H](CCCNC(=N)N)C(=O)N[C@H](C(=O)N[C@@H](Cc1c[nH]c2ccccc12)C(=O)O)C(C)C)C(C)C)[C@@H](C)CC (single isomer, unassigned) [SEQ ID NO: 393/500, Stearyl-W-NmeW-E-aMeS-ILDEH-aMeV-QRVW-COOH] |  | > 30 |  |
| H-GGGDDLGANDELISFKDEGEQEEKSSENSSAERDLADVKSSLVNEK-NH2 [compound 266] | 0.88 | < 0.4 |  |
| CC[C@H](C)[C@H](NC(=O)[C@H](CC(C)C)NC(=O)[C@H](Cc1ccccc1)NC(=O)[C@H](Cc1c[nH]c2ccccc12)NC(=O)[C@H](CCSC)NC(=O)[C@H](CCCNC(=N)N)NC(=O)[C@H](CO)NC(=O)[C@@H](N)CCSC)C(=O)N[C@@H](CO)C(=O)N[C@@H](Cc1ccccc1)C(=O)N[C@@H](Cc1c[nH]c2ccccc12)C(=O)N[C@@H](CCCCN)C(N)=O [compound 6] (H-MSRMWFLISFWK-NH2) |  | > 30 |  |
| CC[C@H](C)[C@H](NC(=O)[C@H](CC(C)C)NC(=O)[C@H](Cc1ccccc1)NC(=O)[C@H](Cc1c[nH]c2ccccc12)NC(=O)[C@@H](N)CCSC)C(=O)N[C@@H](CO)C(=O)N[C@@H](Cc1ccccc1)C(=O)N[C@@H](Cc1c[nH]c2ccccc12)C(=O)N[C@@H](C)C(=O)O [compound 7] (H-MWFLISFWA-OH) | 0.5 | 10 to 30 |  |
